Where two headings read alike, the source gives them in different places.
How the values were obtained:
[1] = target: human butyrylcholinesterase (hBuChE) (Homo sapiens, UniProt P06276); test: biochemical
carboxylesterases = test: General carboxylesterase inhibition; type: biochemical
Method: Carboxylesterase (CE) inhibition was determined by a spectroscopic assay using o-nitrophenyl acetate (o-NPA) as a substrate. Recombinant CEs produced from expression in Spodoptera frugiperda Sf9 insect cells via baculovirus were purified from serum-free culture media for the enzyme inhibition studies. Enzymes were incubated in 200 μl of 50 mM Hepes (pH 7.4) containing 3 mM o-NPA. Conversion of the o-NPA to nitrophenol was monitored by measuring the change in the absorbance at 420 nm. Absorbance readings were taken every 15 seconds for 2 minutes, and data transferred to a computer data spreadsheet. […] The final DMSO concentration was always 1% or less. […] The above procedure was then repeated using the same assay, with inhibitor concentrations ranging from 1 nM to 100 μM. Results were then transferred to Prism software (GraphPad Software, Inc., San Diego, Calif.) and Ki values determined using sigmoidal curve fits of the data. Routinely, all analyses were performed in duplicate, and Ki values determined using at least 8 inhibitor concentrations.

[2] = target: T1, rabbit liver carboxylesterase (rCE) (Oryctolagus cuniculus, UniProt P12337); test: biochemical; type: biochemical; settings: o-NPA as substrate
T1 sequence (P12337 19-565): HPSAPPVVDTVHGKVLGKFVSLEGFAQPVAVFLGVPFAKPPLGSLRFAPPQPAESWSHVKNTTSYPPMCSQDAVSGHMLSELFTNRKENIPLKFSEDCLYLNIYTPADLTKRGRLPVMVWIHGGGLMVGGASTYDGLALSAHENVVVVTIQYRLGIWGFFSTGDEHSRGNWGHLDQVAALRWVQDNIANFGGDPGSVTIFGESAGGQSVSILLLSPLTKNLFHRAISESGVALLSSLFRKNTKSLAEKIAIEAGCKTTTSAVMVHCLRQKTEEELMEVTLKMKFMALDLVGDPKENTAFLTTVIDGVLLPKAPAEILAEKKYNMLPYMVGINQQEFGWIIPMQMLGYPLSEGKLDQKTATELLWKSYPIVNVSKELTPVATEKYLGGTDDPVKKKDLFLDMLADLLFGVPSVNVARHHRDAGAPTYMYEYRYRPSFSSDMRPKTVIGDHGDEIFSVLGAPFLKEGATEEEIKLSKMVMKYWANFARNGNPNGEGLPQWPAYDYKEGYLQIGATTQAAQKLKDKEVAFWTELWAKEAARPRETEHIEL

[3] = target: T2, human acetylcholinesterase (hAcChE) (Homo sapiens, UniProt P22303); test: biochemical; type: biochemical
T2 construct: purchased Sigma Biochemicals (St. Louis, Mo.)
T2 sequence (P22303 32-614): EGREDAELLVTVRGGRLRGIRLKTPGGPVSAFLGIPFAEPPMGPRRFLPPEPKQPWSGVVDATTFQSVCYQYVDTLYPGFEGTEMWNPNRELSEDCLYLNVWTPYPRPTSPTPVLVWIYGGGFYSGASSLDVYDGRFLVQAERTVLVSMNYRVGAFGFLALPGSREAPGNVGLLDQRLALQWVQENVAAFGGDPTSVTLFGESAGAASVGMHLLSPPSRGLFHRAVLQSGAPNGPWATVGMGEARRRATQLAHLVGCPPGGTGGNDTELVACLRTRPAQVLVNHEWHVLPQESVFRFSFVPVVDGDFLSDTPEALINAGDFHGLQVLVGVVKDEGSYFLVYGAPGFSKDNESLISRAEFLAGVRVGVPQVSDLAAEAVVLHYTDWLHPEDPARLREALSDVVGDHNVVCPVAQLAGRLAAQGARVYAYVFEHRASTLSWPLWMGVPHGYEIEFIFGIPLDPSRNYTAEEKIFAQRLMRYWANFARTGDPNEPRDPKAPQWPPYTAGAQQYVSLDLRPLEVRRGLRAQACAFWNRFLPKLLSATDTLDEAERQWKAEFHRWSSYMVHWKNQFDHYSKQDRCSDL
Method: Data was transferred to GraphPad Prism software, and Ki values were calculated as described in the Example above.

[4] = target: T3, human liver carboxylesterase (hCE1) (Homo sapiens, UniProt P23141); test: biochemical; type: biochemical; settings: o-NPA as substrate
T3 sequence (P23141 18-567): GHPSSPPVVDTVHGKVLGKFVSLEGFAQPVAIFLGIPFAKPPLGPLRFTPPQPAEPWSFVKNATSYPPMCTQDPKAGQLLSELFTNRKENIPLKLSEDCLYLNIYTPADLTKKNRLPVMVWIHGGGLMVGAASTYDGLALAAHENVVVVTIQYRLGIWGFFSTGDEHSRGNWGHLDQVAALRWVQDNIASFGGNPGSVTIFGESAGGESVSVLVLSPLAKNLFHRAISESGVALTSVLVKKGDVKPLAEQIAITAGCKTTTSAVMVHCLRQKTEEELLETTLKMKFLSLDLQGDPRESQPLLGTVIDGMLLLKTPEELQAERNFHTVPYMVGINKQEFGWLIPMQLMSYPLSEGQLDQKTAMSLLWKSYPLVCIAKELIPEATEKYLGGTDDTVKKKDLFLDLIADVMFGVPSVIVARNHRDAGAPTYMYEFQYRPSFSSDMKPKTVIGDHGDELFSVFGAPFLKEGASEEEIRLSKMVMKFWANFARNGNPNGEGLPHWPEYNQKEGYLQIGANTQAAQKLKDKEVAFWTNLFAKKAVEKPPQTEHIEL

hiCE = target: T4, hiCE (Homo sapiens, UniProt O00748); test: Inhibition of hiCE-mediated activation of CPT-11 (SN-38 by HPLC); type: biochemical
T4 sequence (O00748 27-559): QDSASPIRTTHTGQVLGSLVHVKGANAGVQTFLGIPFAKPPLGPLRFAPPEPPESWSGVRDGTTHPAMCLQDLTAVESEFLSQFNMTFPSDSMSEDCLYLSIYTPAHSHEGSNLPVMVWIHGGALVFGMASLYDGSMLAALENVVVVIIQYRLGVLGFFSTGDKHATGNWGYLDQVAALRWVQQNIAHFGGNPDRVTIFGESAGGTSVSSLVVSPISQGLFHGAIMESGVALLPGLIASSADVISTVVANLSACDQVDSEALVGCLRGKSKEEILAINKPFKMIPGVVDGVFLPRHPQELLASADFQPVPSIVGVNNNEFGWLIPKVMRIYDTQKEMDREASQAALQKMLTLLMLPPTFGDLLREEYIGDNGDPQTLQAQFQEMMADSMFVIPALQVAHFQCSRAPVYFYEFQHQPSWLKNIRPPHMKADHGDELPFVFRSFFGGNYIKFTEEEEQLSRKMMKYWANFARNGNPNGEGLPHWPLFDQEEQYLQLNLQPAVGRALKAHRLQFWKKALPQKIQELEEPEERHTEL
Method: Since the sulphonamide compounds identified herein are competitive inhibitors of hiCE, their activity is dependant upon the substrate used. To access the ability of these compounds to inhibit the hiCE-mediated activation of CPT-11, Ki values were determined using CPT-11 as the substrate.
CPT-11 concentrations were fixed at […], and inhibitor concentrations varied from 1 nM to 10 μM. Following incubation for an hour at 37° C., the levels of SN-38 in the reaction mixture was determined by High Performance Liquid Chromatography (HPLC).

[5] = target: T5, human small intestine carboxylesterase (hiCE) (Homo sapiens, UniProt O00748); test: biochemical; type: biochemical; settings: for Ki / Ki (hCE1)/Ki (hiCE): o-NPA as substrate; for Ki: Table 5, read-out: Ki hiCE; for Ki (hCE1)/Ki (hiCE): selectivity ratio
T5 sequence (O00748 27-559): T4 sequence (O00748 27-559)

[6] = target: T6, human intestinal carboxylesterase in U373MGhiCE cells (Homo sapiens, UniProt O00748); test: Inhibition of intracellular carboxylesterase in U373MGhiCE cells; type: cell-based
T6 construct: expressed in transfected cells; host or cells: U373MG human glioma cells (U373MGhiCE)
T6 sequence (O00748 27-559): T4 sequence (O00748 27-559)
Method: To monitor the ability of the compounds to cross the cell membrane and inhibit carboxylesterase activity intracellularly, an assay using human tumor cells expressing hiCE was devised. U373MGhiCE (a human glioma cell line transfected with a plasmid expressing hiCE) were plated in T25 flasks and allowed to grow to confluency (approximately 2-5×10^5 cells). Inhibitors were then added at a final concentration of […], and incubation allowed to continue for 1 hour. At this time, the cells were washed extensively with 5 ml of complete media and 2×5 ml of Hanks balanced salt solution, and cell extracts were prepared. Carboxylesterase activity was then determined using o-NPA as a substrate.
Table 8 sets forth the level of intracellular enzyme inhibition following incubation of human glioblastoma tumor cells expressing human intestinal carboxylesterase with 10 μM of each compound identified in Table 3.

[7] = butyrylthiocholine as substrate, Table 6, read-out: hBuChE Ki
[8] = acetylthiocholine as substrate, Table 6, read-out: hAcChE Ki
[9] = Table 6, read-out: hCE1 Ki ± SE
[10] = CPT-11 as substrate (100 μm), 1 hour at 37° C., read-out: Ki hiCE
[11] = acetylthiocholine substrate, Table 5, read-out: Ki hAcChE

Chain of human butyrylcholinesterase (hBuChE) (P06276 29-602): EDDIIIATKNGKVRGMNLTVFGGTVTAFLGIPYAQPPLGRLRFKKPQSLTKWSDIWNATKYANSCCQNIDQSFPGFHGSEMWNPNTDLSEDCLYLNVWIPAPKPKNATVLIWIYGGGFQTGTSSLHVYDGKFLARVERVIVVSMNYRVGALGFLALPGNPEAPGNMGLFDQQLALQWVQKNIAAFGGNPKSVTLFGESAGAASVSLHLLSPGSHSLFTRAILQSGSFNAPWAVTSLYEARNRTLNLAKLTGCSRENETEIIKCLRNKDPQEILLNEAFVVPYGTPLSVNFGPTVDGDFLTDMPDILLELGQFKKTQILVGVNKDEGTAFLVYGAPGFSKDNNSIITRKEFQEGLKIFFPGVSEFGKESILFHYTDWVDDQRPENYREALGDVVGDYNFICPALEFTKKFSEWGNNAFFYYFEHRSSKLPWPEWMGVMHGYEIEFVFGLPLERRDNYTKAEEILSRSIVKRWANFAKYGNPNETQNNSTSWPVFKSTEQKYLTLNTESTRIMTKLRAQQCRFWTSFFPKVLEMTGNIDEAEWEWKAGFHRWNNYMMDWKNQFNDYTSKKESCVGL

| SMILES | found to be general carboxylesterase inhibitors (carboxylesterases) | Ki ([2]; Table 6, read-out: rCE Ki ± SE) [nM] | Ki [3, 8] [nM] | Ki [4, 9] [nM] | Ki [1] [nM] | also measured |
| --- | --- | --- | --- | --- | --- | --- |
| O=C(O)c1ccc(C(=O)C(=O)c2ccccc2)cc1 [Compound 1, 4-[oxo(phenyl)acetyl]benzoic acid] | general carboxylesterase inhibitors | 64 ± 6.2 | > 100000 | 524 ± 46 |  | Ki [1, 7]: > 100000 nM |
| O=C(C(=O)c1ccc(CBr)cc1)c1ccccc1 [Compound 3] | general carboxylesterase inhibitors | 15 ± 1.6 |  | 77.6 ± 5.5 | > 100000 |  |
| Cc1ccc(C(=O)C(=O)c2ccccc2)cc1C [Compound 5, 1-(3,4-dimethylphenyl)-2-phenylethane-1,2-dione] | general carboxylesterase inhibitors | 108 ± 8.8 | > 100000 | 99.1 ± 10 | > 100000 |  |
| COc1ccc(C(=O)C(=O)c2ccccc2)cc1 [Compound 6, 1-(4-methoxyphenyl)-2-2phenylethane-1,2-dione] | general carboxylesterase inhibitors | 200 ± 60 | > 100000 | 175 ± 8.5 | > 100000 |  |
| Cc1ccc(C(=O)C(=O)c2ccccc2)cc1[N+](=O)[O-] [Compound 7, 1-(4-methyl-3-nitrophenyl)-2-phenylethane-1,2-dione] | general carboxylesterase inhibitors | 11.9 ± 1.1 | > 100000 | 295 ± 9.6 | > 100000 |  |
| O=C(C(=O)c1ccc([N+](=O)[O-])cc1)c1ccccc1 [Compound 14, 1-(4-nitrophenyl)-2-phenylethane-1,2-dione] | general carboxylesterase inhibitors | 21.7 ± 2.5 | > 100000 | 215 ± 24 | > 100000 |  |
| O=C(C(=O)c1ccc(F)cc1)c1ccc(F)cc1 [Compound 16, 1,2-bis(4-fluorophenyl)ethane-1,2-dione] | general carboxylesterase inhibitors |  |  |  |  |  |
| Cc1ccc(C(=O)C(=O)c2ccc(C)cc2)cc1 [Compound 17, 1,2-bis(4-methylphenyl)ethane-1,2-dione] | general carboxylesterase inhibitors | 49.6 ± 6.8 | > 100000 | 532 ± 35 |  | Ki [1, 7]: > 100000 nM |
| O=C(C(=O)c1cc(F)cc(F)c1)c1cc(F)cc(F)c1 [Compound 19, 1,2-bis(3,5-difluorophenyl)ethane-1,2-dione] | general carboxylesterase inhibitors |  |  |  |  |  |
| O=C(C(=O)c1cc(F)c(F)c(F)c1)c1cc(F)c(F)c(F)c1 [Compound 20, 1,2-bis(3,4,5-trifluorophenyl)ethane-1,2-dione] | general carboxylesterase inhibitors |  |  |  |  |  |
| Cc1ccc(C(=O)C(=O)c2ccc(Cl)cc2)cc1 [Compound 22, 1-(4-chlorophenyl)-2-(4-methylphenyl)ethane-1,2-dione] | general carboxylesterase inhibitors | 16.2 ± 1.7 |  | 160 ± 32 | > 100000 |  |
| O=C(C(=O)c1cccs1)c1cccs1 [Compound 23, 1,2-dithien-2-yl-ethane-1,2-dione] | general carboxylesterase inhibitors |  |  |  |  |  |
| O=S(=O)(Nc1c(Cl)c(Cl)c(NS(=O)(=O)c2ccccc2)c(Cl)c1Cl)c1ccccc1 [Compound 44, N-{2,3,5,6-tetrachloro-4-[(phenylsulfonyl)amino]phenyl}benzene sulfonamide] |  |  |  |  | > 100000 | Ki (hiCE; [10]): > 100000 nM; Ki ([2]; Table 5, read-out: Ki rCE): > 100000 nM; change in apparent Vmax of hiCE ([5]; 149 nM or 447 nM inhibitor): no change; Ki [5]: 451 ± 39 nM; Ki (hCE1)/Ki (hiCE) [5]: >220; Ki [3, 11]: > 100000 nM; inhibition at 10 µM [6]: 0.6%; Ki ([4]; Table 5, read-out: Ki hCE1): > 100000 nM |
| O=S(=O)(Nc1ccc(NS(=O)(=O)c2ccc(Cl)cc2)cc1)c1ccc(Cl)cc1 [Compound 45, 4-chloro-N-(4-{[(4-chlorophenyl)sulfonyl]amino}phenyl) benzenesulfonamide] |  |  |  |  | > 100000 | Ki (hiCE): 141 ± 64 nM; Ki ([2]; Table 5, read-out: Ki rCE): 1200 nM; Ki [5]: 53.3 ± 5.5 nM; Ki (hCE1)/Ki (hiCE) [5]: >250; Ki [3, 11]: > 100000 nM; inhibition at 10 µM [6]: 7.5%; Ki ([4]; Table 5, read-out: Ki hCE1): 13700 nM |
| O=S(=O)(Nc1ccc(Oc2ccccc2)cc1)c1ccc(Br)cc1 [Compound 46, 4-bromo-N-(4-phenoxyphenyl)benzenesulfonamide] |  |  |  |  | > 100000 | Ki (hiCE; [10]): > 100000 nM; Ki ([2]; Table 5, read-out: Ki rCE): 319 ± 37 nM; Ki [5]: 165 ± 33 nM; Ki (hCE1)/Ki (hiCE) [5]: >600; Ki [3, 11]: > 100000 nM; inhibition at 10 µM [6]: 0%; Ki ([4]; Table 5, read-out: Ki hCE1): > 100000 nM |
| O=C(NC(Cc1ccccc1)C(=O)Oc1ccc2ccccc2c1)c1ccccc1 (centres unmarked) [Compound 57, 2-Benzoylamino-3-phenyl-propionic acid naphthalene-2-yl ester] |  |  |  |  |  | Ki [5]: 61 nM; Ki [3, 11]: > 100000 nM; inhibition at 10 µM [6]: 24.2%; Ki ([4]; Table 5, read-out: Ki hCE1): > 100000 nM |

Source: patent US7973034B2, “Amide, aryl sulfonamide, aryl urea, and α,β-diketone derived carboxylesterase inhibitors, and their methods of use” (priority 2003, dated 2011)
